The test system of one assay is leukotriene D4. As to the kind of experiment: Leukotriene D4-induced bronchoconstriction (modified Konzett-Rossler, transpulmonary pressure) in anesthetized guinea pig, oral administration. The assay is classed as in vivo, male Hartley guinea pig. Conditions: p.o., 2 hours before leukotriene D4 (3 μg/kg, i.v.). As to the method:
A male Hartley guinea pig weighing about 450 g was anesthetized with sodium pentobarbital (30 mg/kg,i.p.). The change in transpulmonary pressure was measured by modifying the method of Konzett-Rossler (J. Harvey, et al., J. Pharmacol. Method. 9, 147-155, 1983) under an artificial ventilation. Animal was treated with indomethacin (10 mg/kg,i.v.) and propranolol (1 mg/kg,i.v.). Bronchoconstrictor response was obtained by bolus injection of leukotriene D4 (3 μg/kg,i.v.). Test compounds were suspended in 5% Gum Arabic solution and orally administered 2 hours before the challenge with leukotriene D4.

The subject of another assay is leukotriene. Conditions: oral; P. Sheard et al, 1977; cited from earlier work.

The source of these data is patent US4942245A, “Benzimidazole Derivatives” (Kyorin Pharmaceutical Co., Ltd., priority 1987, dated 1990).

Each structure is given as a SMILES string.

For the compound `CCCc1c(OCCCS(=O)(=O)c2nc3ccc(C(=O)O)cc3[nH]2)ccc(C(C)=O)c1O` [Example 6, 2-[3-(4-Acetyl-3-hydroxy-2-propylphenoxy)propylsulfonyl]benzimidazole-5-carboxylic acid], the “Inhibition (%) of LTD4-induced bronchoconstrictor response” value (from here on “Inhibition (%)”) in the assay on leukotriene D4 (200 mg/kg) stood at 40.5%.
Consider `CCCc1c(OCCCCc2nc3ccc(C(=O)O)cc3[nH]2)ccc(C(C)=O)c1O` [Example 36, 2-[4-(4-Acetyl-3-hydroxy-2-propylphenoxy)butyl]-benzimidazole-5-carboxylic acid], for which the entries for the “Inhibition (%)” value with leukotriene D4 (100 mg/kg) and with leukotriene D4 (200 mg/kg) were 44.6% and 88.6%, respectively.
For `CCCc1c(OCCCS(=O)(=O)c2nc3ccccc3[nH]2)ccc(C(C)=O)c1O` [Ref. 1, 2-[3-(4-acetyl-3-hydroxy-2-propylphenoxy)propylsulfonyl]-benzimidazole, reference compound], in the assay with leukotriene D4 (400 mg/kg), the “Inhibition (%)” value came out at 19.5%.
For the compound `CCCc1c(OCC(O)COc2ccc3c(=O)cc(C(=O)O)oc3c2CCC)ccc(C(C)=O)c1O` (stereo not drawn) [FPL55712], in the assay with leukotriene, the “effect of leukotriene antagonist when administered orally” value is on record as “no effect”.
As for `CCCc1c(OCCCC[S+]([O-])c2nc3cc(C(=O)O)ccc3[nH]2)ccc(C(C)=O)c1O` (stereo not drawn) [Example 12], the “Inhibition (%)” value in the assay with leukotriene D4 (200 mg/kg) was found to be 33.3%.
As for `CCCc1c(OCCCCSc2nc3cc(C(=O)O)ccc3[nH]2)ccc(C(C)=O)c1O` [Example 11], the figures for the “Inhibition (%)” value in the assay on leukotriene D4 (25 mg/kg), in the assay with leukotriene D4 (50 mg/kg) and in the assay on leukotriene D4 (100 mg/kg) were 27.6%, 73.1% and 84.6%, respectively.
Take `CCCc1c(OCCCSc2nc3ccc(C(=O)O)cc3[nH]2)ccc(C(C)=O)c1O` [Example 1, 2-[3-(4-Acetyl-3-hydroxy-2-propylphenoxy)propyl-thio]benzimidazole-5-carboxylic acid]: the entries for the “Inhibition (%)” value in the assay on leukotriene D4 (100 mg/kg) and with leukotriene D4 (200 mg/kg) were 47.8% and 63.3%, respectively.
In the case of `CCCc1c(OCCCCCSc2nc3cc(C(=O)O)ccc3[nH]2)ccc(C(C)=O)c1O` [Example 24], the “Inhibition (%)” value in the assay with leukotriene D4 (200 mg/kg) worked out at 57.1%.
